Source: US7524851B2 (Robert Bosch Gesellschaft fur Medizinische Forschung (RBMF), priority 2003, dated 2009)

How the values were obtained:
[1] = tested on: peripheral blood CD4+ T cells; test: Apoptotic blood T cells from IBD patients receiving azathioprine/6-MP; format: in vivo, human; conditions: for number of apoptotic blood T cells: treated IBD patients vs untreated patients before therapy, cells stimulated with CD28 in culture, P<0.05
Text: FIG. 3. […] (a) LPMCs were isolated and stimulated with anti-CD2/CD28 plus IL-2 in the presence or absence of 6-MP for 5 days followed by FACS analysis. […] Data represent mean values±SEM from eight patients with IBD per group. […] Data are representative of 5-13 patients per group. Magnification, ×20 (bar=100 μm) (ce) and ×40 (bar=50 μm) (f-h). (i) Quantification of the percentage of apoptotic, TUNEL-positive LPMCs in patients with IBD receiving 6-MP as compared with untreated control patients. […] Data are mean values±SEM of 5-13 patients per group.
Isolation of primary CD4^+ T lymphocytes and lamina propria cells: Human peripheral blood mononuclear cells (PBMCs) from healthy volunteers (25-42 years of age) and patients with Crohn's disease (31-65 years of age) were isolated using Ficoll-Hypaque gradients. PBMCs were further purified using CD4 monoclonal antibodies attached to immunomagnetic beads according to the manufacturer's protocol, followed by treatment with Detachabead (Dynal; Oslo, Norway). In some cases, CD4^+ T cells were further separated by negative selection techniques using CD45RO or CD45RA monoclonal antibodies (PharMingen; Heidelberg, Germany) and immunomagnetic beads (Dynal). […] Lamina propria mononuclear cells (LPMCs) from patients with IBD were isolated from gut specimens using a short-term (5-minute) digestion protocol with collagenase V, hyaluronidase (Sigma-Aldrich; St. Louis, Mo., USA), and DNase (Roche; Mannheim, Germany), as recently described in detail in Holtmann et al., Eur. J. Immunol. 32:3142-3151 (2002). […]
For FACS analysis, apoptotic cells were detected by staining with annexin V and propidium iodide using the Annexin V FITC Apoptosis Detection Kit I (PharMingen) (Atreya et al., Nat. Med. 6:583-588 (2000)). […]

MEK = MEK phosphorylation and expression (Western blot, FACS); format: cell-based, human; conditions: 3 days
Protocol: FACS analysis: Analysis of peripheral blood T cells and lamina propria T lymphocytes by FACS (FACSscan; Becton Dickinson; Berlin, Germany) was performed using FITC-labeled murine antibodies to human CD4 (PharMingen), anti-mouse IgG1 isotype control antibodies (PharMingen), antibodies to bcl-xL and p mitogen-activated protein kinase kinase (pMEK) (Santa Cruz Biotech; Santa Cruz, Calif., USA), and goat anti-mouse Fab-FITC (DAKO). For intracellular staining analysis, T cells were fixed in PBS/4% paraformaldehyde (Merck; Munich, Germany) for 10 minutes at 4° C., washed twice in PBS, permeabilized in PBS/0.1% Triton X-100 (Sigma-Aldrich; Steinheim, Germany), and treated with mouse anti-human bcl-xL or MEK antibodies (2 μg per 5×10^5 cells) for 30 minutes on ice. T cells were washed twice in PBS/0.1% Triton X-100 before incubation with goat anti-mouse Fab-FITC (2 μl per 10^5 cells). Finally, T cells were washed twice in PBS before FACS analysis.
The cells were then washed in PBS, resuspended in 1 ml of T40E10N150 buffer (40 mM Tris-HCl [pH 7.9], 10 mM EDTA [pH 8.0], 150 mM NaCl), put on ice for 5 minutes, and centrifuged for 4 minutes at 4° C. at 1,000 rpm. The cell pellet was then resuspended on ice in 70 μl of buffer (10 mM HEPES [pH 8.0], 400 mM NaCl, 0.1 mM EDTA, 5% glycerol, 1 mM DTT, 1 mM PMSF) and centrifuged at 15,000 rpm for 30 minutes at 4° C. The protein concentrations in supernatants were determined with the Bio-Rad Protein Assay (Bio-Rad; Munich, Germany).
Western blots: Equal amounts of extract (30 μg) were added to 8 μl of electrophoresis sample buffer (Firma Roth; Karlsruhe, Germany). After boiling, the extracts were loaded on 15% SDS-PAGE gels and electrophoretically separated. Proteins were transferred to nitrocellulose membranes, and detection was performed with the ECL Western blotting analysis system (Amersham). […]

| Structure (SMILES) | further increase in percentage of apoptotic cells on additional 6-MP in vitro ([1]; T cells from 6-MP-treated patients) | number of apoptotic blood T cells [1] | MEK phosphorylation (MEK) | expression levels of MEK (MEK) |
| --- | --- | --- | --- | --- |
| Sc1ncnc2nc[nH]c12 [6-MP, 6-mercaptopurine] | did not cause a further significant increase | significant increase | suppresses | – |
| Cn1cnc([N+](=O)[O-])c1Sc1ncnc2nc[nH]c12 [azathioprine, Azathioprine] | – | significant increase | suppressed | nearly unchanged |
